Structures can show the parent of a compound that is named as a salt. Where two headings read alike, the source gives them in different places.
Key:
CYP450 enzymes = conditions: in vitro; cited from earlier work
Anti-(H12)2 = experiment: Specificity of the immunoassay (cross-reactivity in human serum); format: binding, rabbit; conditions: 10 μg/mL of crossreactant plus 5 μg/mL of tipranavir in human serum
Description: Also antibody Anti-(H12)2 was used in this Example as part of an antibody reagent (“Anti-(H12)2 Antibody Reagent”) further comprising nicotinamide adenine dinucleotide, glucose-6-phosphate, sodium chloride, bulking agent, surfactant, and preservatives.
An immunoassay for tipranavir was conducted on the Cobas Mira Chemistry Analyzer (Roche). On the analyzer, 4 μL of sample plus 61 μL water were incubated for 300 sec with 150 μL of Anti-(H12)2 Antibody Reagent. […] After 25 sec incubation, enzyme activity was monitored by following the production of NADH spectrophotometrically at 340 nm for 50 sec.
Testing was performed on the Cobas Mira analyzer. The percentage concentration above 5 μg/mL of tipranavir was calculated for each crossreactant.

[1] = target: mammalian DNA polymerases β (Homo sapiens, UniProt P06746); conditions: cited from earlier work
[2] = target: T1, mammalian DNA polymerases α (Homo sapiens, UniProt P09884); conditions: cited from earlier work
T1 sequence (P09884 1-1462): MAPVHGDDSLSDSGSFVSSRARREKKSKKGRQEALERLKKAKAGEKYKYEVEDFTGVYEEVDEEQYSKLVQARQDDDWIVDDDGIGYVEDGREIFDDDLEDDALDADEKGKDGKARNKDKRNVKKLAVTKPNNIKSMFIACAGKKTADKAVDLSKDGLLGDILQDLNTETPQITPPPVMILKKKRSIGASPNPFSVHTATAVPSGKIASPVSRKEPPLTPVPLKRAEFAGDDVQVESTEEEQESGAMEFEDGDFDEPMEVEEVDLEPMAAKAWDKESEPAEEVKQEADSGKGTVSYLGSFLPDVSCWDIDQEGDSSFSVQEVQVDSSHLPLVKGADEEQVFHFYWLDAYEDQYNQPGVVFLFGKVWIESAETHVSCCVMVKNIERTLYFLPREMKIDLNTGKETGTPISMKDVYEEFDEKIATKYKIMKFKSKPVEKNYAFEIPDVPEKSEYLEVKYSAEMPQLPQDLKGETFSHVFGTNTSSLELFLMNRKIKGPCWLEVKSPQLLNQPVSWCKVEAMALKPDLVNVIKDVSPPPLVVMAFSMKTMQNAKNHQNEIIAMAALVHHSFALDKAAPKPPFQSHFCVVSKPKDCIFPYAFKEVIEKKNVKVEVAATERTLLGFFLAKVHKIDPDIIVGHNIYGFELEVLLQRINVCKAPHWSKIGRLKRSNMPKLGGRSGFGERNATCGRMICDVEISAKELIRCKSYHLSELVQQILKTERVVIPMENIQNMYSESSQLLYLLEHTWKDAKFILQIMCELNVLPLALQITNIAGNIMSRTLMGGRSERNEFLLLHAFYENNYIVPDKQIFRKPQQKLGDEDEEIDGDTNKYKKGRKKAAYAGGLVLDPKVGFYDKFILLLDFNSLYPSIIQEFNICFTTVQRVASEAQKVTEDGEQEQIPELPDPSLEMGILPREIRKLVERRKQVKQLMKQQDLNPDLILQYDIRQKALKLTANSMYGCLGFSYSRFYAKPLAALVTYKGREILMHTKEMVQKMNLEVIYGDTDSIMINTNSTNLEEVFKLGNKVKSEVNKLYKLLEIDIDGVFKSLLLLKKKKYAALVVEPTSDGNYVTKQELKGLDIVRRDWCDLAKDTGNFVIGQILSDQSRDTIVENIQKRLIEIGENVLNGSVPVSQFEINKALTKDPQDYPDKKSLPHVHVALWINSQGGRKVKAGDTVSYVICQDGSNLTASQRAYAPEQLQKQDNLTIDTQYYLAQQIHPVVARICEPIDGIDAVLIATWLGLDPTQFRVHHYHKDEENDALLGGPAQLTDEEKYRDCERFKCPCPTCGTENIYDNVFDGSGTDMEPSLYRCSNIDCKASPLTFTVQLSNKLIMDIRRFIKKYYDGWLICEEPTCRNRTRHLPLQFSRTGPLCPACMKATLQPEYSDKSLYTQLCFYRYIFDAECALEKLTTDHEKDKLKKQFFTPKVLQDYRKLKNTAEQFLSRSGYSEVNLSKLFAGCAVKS

[3] = target: T2, mitochondrial DNA polymerase γ (Homo sapiens, UniProt P54098); conditions: cited from earlier work
T2 sequence (P54098 1-1239): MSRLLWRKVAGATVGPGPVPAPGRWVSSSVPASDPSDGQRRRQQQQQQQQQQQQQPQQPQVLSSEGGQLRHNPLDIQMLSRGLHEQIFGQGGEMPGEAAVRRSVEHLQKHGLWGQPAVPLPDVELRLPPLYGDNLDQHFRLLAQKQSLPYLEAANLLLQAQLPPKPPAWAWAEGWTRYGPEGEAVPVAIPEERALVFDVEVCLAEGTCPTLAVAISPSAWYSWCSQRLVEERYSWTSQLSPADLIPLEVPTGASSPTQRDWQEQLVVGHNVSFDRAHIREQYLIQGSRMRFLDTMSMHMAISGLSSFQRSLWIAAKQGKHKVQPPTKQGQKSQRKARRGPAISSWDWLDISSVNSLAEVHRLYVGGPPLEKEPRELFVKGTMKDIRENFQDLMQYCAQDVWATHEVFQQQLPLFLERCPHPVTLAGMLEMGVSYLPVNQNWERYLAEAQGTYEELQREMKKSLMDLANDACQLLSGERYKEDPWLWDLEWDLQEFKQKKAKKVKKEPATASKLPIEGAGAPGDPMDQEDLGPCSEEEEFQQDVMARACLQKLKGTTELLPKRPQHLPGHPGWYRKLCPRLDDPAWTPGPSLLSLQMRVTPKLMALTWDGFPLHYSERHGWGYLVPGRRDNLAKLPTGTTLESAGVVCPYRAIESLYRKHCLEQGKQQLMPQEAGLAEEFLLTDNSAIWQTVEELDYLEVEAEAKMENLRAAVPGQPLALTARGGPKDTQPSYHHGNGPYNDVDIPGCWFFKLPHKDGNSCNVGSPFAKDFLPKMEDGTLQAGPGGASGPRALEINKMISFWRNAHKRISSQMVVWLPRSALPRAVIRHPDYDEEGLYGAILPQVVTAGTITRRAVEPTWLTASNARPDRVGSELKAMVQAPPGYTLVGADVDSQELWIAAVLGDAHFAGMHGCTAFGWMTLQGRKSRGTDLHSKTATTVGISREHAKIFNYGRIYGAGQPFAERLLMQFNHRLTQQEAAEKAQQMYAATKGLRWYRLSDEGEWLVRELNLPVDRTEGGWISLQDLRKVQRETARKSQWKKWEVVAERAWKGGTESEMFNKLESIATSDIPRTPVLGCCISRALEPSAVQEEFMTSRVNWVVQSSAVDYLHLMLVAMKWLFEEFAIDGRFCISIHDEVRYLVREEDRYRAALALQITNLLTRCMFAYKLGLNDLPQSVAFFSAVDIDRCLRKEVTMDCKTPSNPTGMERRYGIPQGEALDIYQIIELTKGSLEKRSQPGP

[4] = cited from earlier work
[5] = dogs; cited from earlier work
[6] = rats; cited from earlier work
primary hepatocyte [7] = conditions: dog; cited from earlier work
primary hepatocyte [8] = conditions: human; cited from earlier work
primary hepatocyte [9] = conditions: rat; cited from earlier work
[10] = cited from earlier work; remark: listed apart in the source

Molecule: CC(C)OC(=O)OCOP(=O)(CO[C@H](C)Cn1cnc2c(N)ncnc21)OCOC(=O)OC(C)C [tenofovir disoproxil]
- substrate of CYP450 enzymes (CYP450 enzymes): neither tenofovir disoproxil nor tenofovir are substrates of CYP450 enzymes

Molecule: Cc1cccc(C)c1OCC(=O)N[C@@H](Cc1ccccc1)[C@@H](O)C[C@H](Cc1ccccc1)NC(=O)[C@H](C(C)C)N1CCCNC1=O [Lopinavir]
- Percent Increase in Apparent Tipranavir (Anti-(H12)2): 0%

Molecule: Cc1c(O)cccc1C(=O)N[C@@H](CSc1ccccc1)[C@H](O)CN1C[C@H]2CCCC[C@H]2C[C@H]1C(=O)NC(C)(C)C [Nelfinavir]
- Percent Increase in Apparent Tipranavir (Anti-(H12)2): 0%

Molecule: CC(Cn1cnc2c(N)ncnc21)OCP(=O)(O)OP(=O)(O)OP(=O)(O)O (stereo in doubt) [Tenofovir diphosphate]
- inhibition of DNA polymerase β [1]: weak inhibitor
- inhibition of DNA polymerase α [2]: weak inhibitor
- inhibition of mitochondrial DNA polymerase γ [3]: weak inhibitor

Molecule: CC(C)c1nc(CN(C)C(=O)N[C@H](C(=O)N[C@@H](Cc2ccccc2)C[C@H](O)[C@H](Cc2ccccc2)NC(=O)OCc2cncs2)C(C)C)cs1 [Ritonavir]
- Percent Increase in Apparent Tipranavir (Anti-(H12)2): 0%

Molecule: 2′-deoxy-3′-thiacytidine [Lamivudine]
- absolute bioavailability ([4]; adults): approximately 82%
- absolute bioavailability ([4]; children): ~68%
- time to maximum serum concentrations after the dose ([4]; oral administration): 0.5 to 1.5 h
- oral dose eliminated renally as unchanged drug ([4]; oral dose): approximately 70%
- secretion into breast milk ([4]; postpartum women): secreted into breast milk
- placental transfer ([4]; pregnant women): diffuses freely across the placenta
- systemic exposure (AUC) when administered with food ([4]; with food): not altered
- Percent Increase in Apparent Tipranavir (Anti-(H12)2): 0%

Molecule: CC(C)CN(C[C@@H](O)[C@H](Cc1ccccc1)NC(=O)O[C@H]1CCOC1)S(=O)(=O)c1ccc(N)cc1 [Amprenavir]
- Percent Increase in Apparent Tipranavir (Anti-(H12)2): 0%

Molecule: CC(C)(C)NC(=O)[C@@H]1C[C@@H]2CCCC[C@@H]2CN1C[C@@H](O)[C@H](Cc1ccccc1)NC(=O)[C@H](CC(N)=O)NC(=O)c1ccc2ccccc2n1 [Saquinavir]
- Percent Increase in Apparent Tipranavir (Anti-(H12)2): 0%

Molecule: CCC[C@@]1(CCc2ccccc2)CC(O)=C([C@H](CC)c2cccc(NS(=O)(=O)c3ccc(C(F)(F)F)cn3)c2)C(=O)O1 [Tipranavir]
- plasma metabolic profile [5]: only the parent drug
- plasma metabolic profile [6]: only the parent drug
- stability in primary hepatocyte incubations (primary hepatocyte [7]): stable
- stability in primary hepatocyte incubations (primary hepatocyte [8]): stable
- stability in primary hepatocyte incubations (primary hepatocyte [9]): stable

Molecule: CC(C)(C)NC(=O)[C@@H]1CN(Cc2cccnc2)CCN1C[C@@H](O)C[C@@H](Cc1ccccc1)C(=O)N[C@H]1c2ccccc2C[C@H]1O [Indinavir]
- Percent Increase in Apparent Tipranavir (Anti-(H12)2): 0%

Molecule: Tenofovir
- dose recovered in the urine as unchanged tenofovir ([10]; IV administration, within 72 hours of dosing): 70-80%
- terminal elimination half-life ([10]; single dose, oral administration of Tenofovir disoproxil fumarate): approximately 17 hours
- substrate of CYP450 enzymes (CYP450 enzymes): neither tenofovir disoproxil nor tenofovir are substrates of CYP450 enzymes

Molecule: CC(C)OC(=O)OCOP(=O)(CO[C@H](C)Cn1cnc2c(N)ncnc21)OCOC(=O)OC(C)C [Tenofovir disoproxil fumarate]
- administered dose recovered in urine ([10]; multiple oral doses 300 mg once daily (under fed conditions), over 24 hours): 32±10%

Molecule: O=C1Nc2ccc(Cl)cc2[C@@](C#CC2CC2)(C(F)(F)F)O1 [Efavirenz]
- Percent Increase in Apparent Tipranavir (Anti-(H12)2): 0%
